The target of experiment [1] is T1, BtGH84 (Bacteroides thetaiotaomicron, UniProt Q89ZI2).
T1 construct: made in house
Put plainly: 4MU-GlcNAc cleavage assay (fluorescent kinetic enzyme activity assay). Format: biochemical. The following applies: in the presence of 4mM activator 2 versus absence. How it is done: (§1) AC50 measurements of fragment activators were performed using a fluorescent kinetic assay. Assays were carried out in a 96 well plate (Black Nunc F96 MicroWell Plates) at 25°C in a total volume of 100 μl per well, buffer (50 mM MES pH 6.5, 200 mM NaCl, 0.01% Tween-20, 1% DMSO) with 500 μM 4-methylumbelliferyl-β-D-GlcNAc (4MU-GlcNAc), as substrate and 50 nM BtGH84. Reactions were initiated by addition of 10 μl of substrate, to a final concentration of 500 μM, followed by 5 s of shaking. Fluorescent 4-methylumbelliferyl release was recorded continuously at 355 nm excitation and 460 nm emission for 20 s using a BMG PolarStar Optima plate reader. Rates were calculated using Sigmaplot as the slope of the curve of the collected data. Corrections were made to the detected gradients to adjust for the inner filter effect of 4MU-GlcNAc and convert the gradients into units of μmol min-1 according to a standard curve of 4MU. […]
Kinetic experiments using 4MU-GlcNAc were carried out in an analogous manner except that reactions were initiated by a 10 μl injection of BtGH84, to a final concentration of 50 nM, in a well containing the substrate at the desired concentration. Values quoted throughout are mean and standard deviation of three independent […]
Apparent KM and Vmax values were calculated from a Michalis-Menten curve fit to 8-10 point substrate titrations at a constant concentration of the activator. The covariation experiments used the same range of substrate concentrations across an activator concentration range of 50 µM to 2 mM. The data obtained from these experiments was fit to the nonessential activator equation: […]
Here, [S] is the concentration of the […], [A] the concentration of the activator, α modifies KM, β modifies Vmax and KA is the half-max concentration of the activator. […]

The target of experiment [2] is T1, BtGH84. Put plainly: Isothermal titration calorimetry (ITC). The settings on record: 25°C. In kind it is binding. How it is done:
as §1, with “4MU. The initial slopes were fitted to four-parameter sigmoidal dose response curves using SigmaPlot and the AC50 values extracted.” for “4MU.”
Apparent KM and Vmax values were calculated from a Michalis-Menten curve fit to 8-10 point substrate titrations at a constant concentration of the activator. […]
On the technique in general: In ITC the heat of successive injections is recorded.

Experiment [3] addresses T1, BtGH84. Briefly: Differential scanning fluorimetry (DSF). Format: binding. The following applies: melting temperature of BtGH84; PUGNAc 200 μM. Here is the method:
constant (Ka) were obtained from this fitting, and were used to calculate the Gibbs free energy (ΔG) and […]
Crystallisation and structure determination
BtGH84 crystals were grown using the sitting-drop vapour diffusion method. 1 μl of 12 mg/ml BtGH84 was mixed with 1 μl of reservoir solution (0.1 M imidazole pH 8.0, 10% PEG8000 (w/v), 3% trimethylamine N-oxide dehydrate, 12% ethylene glycol) and the crystals were allowed to grow at room temperature for at least 2 days. Crystal soaking was performed by gradually adding well solution containing 10 mM PUGNac and 50 mM activator 2, and 10% DMSO. Crystals were picked up with a nylon fibre loop (Hampton Research) and plunged into liquid nitrogen. Data were collected at Diamond beamline I04 using a Pilatus 6M-F detector (Dectris) at 100 K. An oscillation range of 0.1° degree was chosen and 180° were collected. Data were indexed, integrated and scaled using XDS.[5] Indexing was chosen to be consistent with previous collected data using Pointless[6] and a direct refinement of the model against the data was carried out. […] The quality of the final model was evaluated using the MolProbity-Server.[10] […]
DSF experiments were performed in 96-well polypropylene PCR plates (Agilent 401334) with a final well volume of 25 µl. […] Data was analysed with a combination of the Agilent MxPro software, MTSA,[11] and the DSF analysis spreadsheet in Excel.[12] […]

T1 sequence (Q89ZI2 22-737, change not shown): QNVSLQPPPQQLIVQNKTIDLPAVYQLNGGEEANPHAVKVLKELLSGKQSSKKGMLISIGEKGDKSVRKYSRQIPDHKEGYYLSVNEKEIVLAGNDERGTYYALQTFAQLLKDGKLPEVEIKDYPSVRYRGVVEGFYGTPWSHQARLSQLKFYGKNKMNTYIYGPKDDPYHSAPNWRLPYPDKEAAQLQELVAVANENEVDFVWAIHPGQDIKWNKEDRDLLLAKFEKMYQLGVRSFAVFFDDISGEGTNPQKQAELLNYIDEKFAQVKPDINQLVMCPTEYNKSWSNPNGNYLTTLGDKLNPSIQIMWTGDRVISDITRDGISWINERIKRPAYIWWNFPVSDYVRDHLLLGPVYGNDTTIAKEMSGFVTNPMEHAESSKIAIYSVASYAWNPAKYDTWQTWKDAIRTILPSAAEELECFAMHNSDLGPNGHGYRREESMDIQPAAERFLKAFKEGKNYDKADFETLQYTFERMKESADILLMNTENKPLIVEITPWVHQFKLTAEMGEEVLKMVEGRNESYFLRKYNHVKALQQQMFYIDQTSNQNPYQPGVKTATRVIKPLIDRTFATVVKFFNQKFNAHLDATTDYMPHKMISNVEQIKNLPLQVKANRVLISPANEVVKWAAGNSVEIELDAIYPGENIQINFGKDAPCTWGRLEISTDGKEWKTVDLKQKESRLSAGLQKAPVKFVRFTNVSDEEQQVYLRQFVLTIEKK

The term Kd denotes the free concentration of one partner at which half of the binding sites on the other are occupied at equilibrium, for simple one-to-one binding. Regarding `CC(=O)N[C@H]1/C(=N/OC(=O)Nc2ccccc2)O[C@H](CO)[C@@H](O)[C@@H]1O` [PUGNAc, O-(2-Acetamido-2-deoxy-D-glucopyranosylidene) amino-Z-N-phenylcarbamate], the “IC50 (change)” value on BtGH84 [1] is “reduced”. Further, the Kd at BtGH84 [2] (in the absence of 2) was determined as 3900 ± 120 nM; on BtGH84 [2] (in the presence of 2 (10 mM)) it was 1100 ± 240 nM. Further, on BtGH84 [3], the “increase of Tm” value was 3 °C.
